# Source: US9073942B2, “Antiviral compounds with a heterotricycle moiety” (Lupin Limited, priority 2012, dated 2015)
# What was measured:
# [1] = test system: bicistronic genotype 2a replicon in Huh 7.5 cells; assay: HCV replicon assay, genotype 2a (Huh7.5/J6/JFH1/EMCVIRES/hRlucNeo cell line, Renilla luciferase readout); type: cell-based; details: Hepatitis C virus, Huh7.5, 72 h, read-out: Gt2a IC50
# Text: (§1) Anti-viral activity of the compounds of the invention was monitored using an HCV replicon assay. The Huh7.5 Con1/SG-Neo(I)hRluc2aUb cell line persistently expressing a bicistronic genotype 1b replicon in Huh 7.5 cells and the Huh7.5/J6/JFH1/EMCVIRES/hRlucNeo cell line expressing a bicistronic genotype 2a replicon in Huh 7.5 cells were obtained from Apath LLC. These cell lines were used to test inhibition of replicon levels by test compound using Renilla luciferase enzyme activity readout as a measure of viral replication efficiency.
# (§2) Briefly, 7000-7500 cells were seeded in 96 well black clear bottom plates and allowed to adhere overnight. The next day each compound was added in triplicate to the cells at the desired concentration with a final DMSO concentration of 0.5%. Cells in media alone and cells incubated without drug with 0.5% DMSO served as controls. The plates were incubated for 72h at 37° C. prior to running the luciferase assay. Enzyme activity was measured using Renilla-Glo Luciferase Assay kit from Promega as per the manufacturer's instructions. The following equation was used to generate the percent inhibition value for each test concentration.
# (§3) The IC50 value was determined using GraphPad Prism and the following equation: Y=Bottom+(Top−Bottom)(1+10^((Log IC50−X)*Hill slope))
# (§4) IC50/values % inhibitions of compounds were determined 2-3 times in the replicon assays.
# [2] = test system: bicistronic genotype 1b replicon in Huh 7.5 cells; assay: HCV replicon assay, genotype 1b (Huh7.5 Con1/SG-Neo(I)hRluc2aUb cell line, Renilla luciferase readout); type: cell-based; details: Hepatitis C virus, Huh7.5, 72 h, read-out: Gt1b IC50
# Text: as §1, §2, §3, §4
SMILES,IC50 [1],IC50 [2]
"COC(=O)N[C@H](C(=O)N1CCC[C@H]1c1ncc(-c2ccc3c(c2)OCc2cc(-c4cnc([C@@H]5CCCN5C(=O)[C@@H](NC(=O)OC)C(C)C)[nH]4)sc2-3)[nH]1)C(C)C [Compound 1, dimethyl((2S,2′S)-((2S,2′S)-2,2′-(5,5′-(4H-thieno[3,2-c]chromene-2,7-diyl)bis(1H-imidazole-5,2-diyl))bis(pyrrolidine-2,1-diyl))bis(3-methyl-1-oxobutane-2,1-diyl))dicarbamate]",0.001 to 0.999 nM,0.001 to 0.999 nM
"COC(=O)N[C@H](C(=O)N1CCC[C@H]1c1ncc(-c2ccc3c(c2)OCCc2cc(-c4cnc([C@@H]5CCCN5C(=O)[C@@H](NC(=O)OC)C(C)C)[nH]4)sc2-3)[nH]1)C(C)C [Compound 2, dimethyl((2S,2′S)-((2S,2′S)-2,2′-(5,5′-(4,5-dihydrobenzo[b]thieno[2,3-d]oxepine-2,8-diyl)bis(1H-imidazole-5,2-diyl))bis(pyrrolidine-2,1-diyl))bis(3-methyl-1-oxobutane-2,1-diyl))dicarbamate]",1 to 100 nM,0.001 to 0.999 nM
"COC(=O)N[C@H](C(=O)N1CCC[C@H]1c1nc(Cl)c(-c2ccc3c(c2)OCCc2cc(-c4[nH]c([C@@H]5CCCN5C(=O)[C@@H](NC(=O)OC)C(C)C)nc4Cl)sc2-3)[nH]1)C(C)C [Compound 3, dimethyl((2S,2′S)-((2S,2′S)-2,2′-(5,5′-(4,5-dihydrobenzo[b]thieno[2,3-d]oxepine-2,8-diyl)bis(4-chloro-1H-imidazole-5,2-diyl))bis(pyrrolidine-2,1-diyl))bis(3-methyl-1-oxobutane-2,1-diyl))dicarbamate]",1 to 100 nM,0.001 to 0.999 nM
"COC(=O)N[C@H](C(=O)N1CCC[C@H]1c1ncc(-c2ccc3c(ccc4sc(-c5cnc([C@@H]6CCCN6C(=O)[C@@H](NC(=O)OC)C(C)C)[nH]5)nc43)c2)[nH]1)C(C)C [Compound 4, dimethyl((2S,2′S)-((2S,2′S)-2,2′-(5,5′-(naphtho[1,2-d]thiazole-2,7-diyl)bis(1H-imidazole-5,2-diyl))bis(pyrrolidine-2,1-diyl))bis(3-methyl-1-oxobutane-2,1-diyl))dicarbamate]",> 100 nM,0.001 to 0.999 nM
"COC(=O)N[C@H](C(=O)N1CCC[C@H]1c1ncc(-c2ccc3c(c2)CCc2cc(-c4cnc([C@@H]5CCCN5C(=O)[C@@H](NC(=O)OC)C(C)C)[nH]4)sc2-3)[nH]1)C(C)C [Compound 5, dimethyl((2S,2′S)-((2S,2′S)-2,2′-(5,5′-(4,5-dihydronaphtho[1,2-b]thiophene-2,7-diyl)bis(1H-imidazole-5,2-diyl))bis(pyrrolidine-2,1-diyl))bis(3-methyl-1-oxobutane-2,1-diyl))dicarbamate]",0.001 to 0.999 nM,0.001 to 0.999 nM
"COC(=O)N[C@H](C(=O)N1CCC[C@H]1c1nc(Cl)c(-c2ccc3c(c2)CCc2c-3sc(-c3[nH]c([C@@H]4CCCN4C(=O)[C@@H](NC(=O)OC)C(C)C)nc3Cl)c2Cl)[nH]1)C(C)C [Compound 6, dimethyl((2S,2′S)-((2S,2′S)-2,2′-(5,5′-(3-chloro-4,5-dihydronaphtho[1,2-b]thiophene-2,7-diyl)bis(4-chloro-1H-imidazole-5,2-diyl))bis(pyrrolidine-2,1-diyl))bis(3-methyl-1-oxobutane-2,1-diyl))dicarbamate]",0.001 to 0.999 nM,0.001 to 0.999 nM
"COC(=O)N[C@H](C(=O)N1CCC[C@H]1c1ncc(-c2ccc3c(ccc4cc(-c5cnc([C@@H]6CCCN6C(=O)[C@@H](NC(=O)OC)C(C)C)[nH]5)sc43)c2)[nH]1)C(C)C [Compound 7, dimethyl((2S,2′S)-((2S,2′S)-2,2′-(5,5′-(naphtho[1,2-b]thiophene-2,7-diyl)bis(1H-imidazole-5,2-diyl))bis(pyrrolidine-2,1-diyl))bis(3-methyl-1-oxobutane-2,1-diyl))dicarbamate]",0.001 to 0.999 nM,0.001 to 0.999 nM
"COC(=O)N[C@H](C(=O)N1CCC[C@H]1c1ncc(-c2ccc3c(c2)CCCc2cc(-c4cnc([C@@H]5CCCN5C(=O)[C@@H](NC(=O)OC)C(C)C)[nH]4)sc2-3)[nH]1)C(C)C [Compound 8, dimethyl((2S,2′S)-((2S,2′S)-2,2′-(5,5′-(5,6-dihydro-4H-benzo[6,7]cyclohepta[1,2-b]thiophene-2,8-diyl)bis(1H-imidazole-5,2-diyl))bis(pyrrolidine-2,1-diyl))bis(3-methyl-1-oxobutane-2,1-diyl))dicarbamate]",0.001 to 0.999 nM,0.001 to 0.999 nM
"COC(=O)N[C@H](C(=O)N1CCC[C@H]1c1nc(Cl)c(-c2ccc3c(c2)CCCc2cc(-c4[nH]c([C@@H]5CCCN5C(=O)[C@@H](NC(=O)OC)C(C)C)nc4Cl)sc2-3)[nH]1)C(C)C [Compound 9, dimethyl((2S,2′S)-((2S,2′S)-2,2′-(5,5′-(5,6-dihydro-4H-benzo[6,7]cyclohepta[1,2-b]thiophene-2,8-diyl)bis(4-chloro-1H-imidazole-5,2-diyl))bis(pyrrolidine-2,1-diyl))bis(3-methyl-1-oxobutane-2,1-diyl))dicarbamate]",0.001 to 0.999 nM,0.001 to 0.999 nM
"COC(=O)N[C@H](C(=O)N1C(c2ncc(-c3ccc4c(ccc5cc(-c6cnc(C7[C@H]8CC[C@H](C8)N7C(=O)[C@@H](NC(=O)OC)C(C)C)[nH]6)sc54)c3)[nH]2)[C@H]2CC[C@@H]1C2)C(C)C (stereo partly drawn) [Compound 10, dimethyl((2S,2′S)-((1R,1′R,3S,3′S,4S,4′S)-3,3′-(5,5′-(naphtho[1,2-b]thiophene-2,7-diyl)bis(1H-imidazole-5,2-diyl))bis(2-azabicyclo[2.2.1]heptane-3,2-diyl))bis(3-methyl-1-oxobutane-2,1-diyl))dicarbamate]",0.001 to 0.999 nM,0.001 to 0.999 nM
"COC(=O)N[C@H](C(=O)N1CCC[C@H]1c1ncc(-c2ccc3c(ccc4cc(-c5cnc([C@@H]6[C@H]7CC[C@H](C7)N6C(=O)[C@@H](NC(=O)OC)C(C)C)[nH]5)sc43)c2)[nH]1)C(C)C [Compound 11, methyl((S)-1-((S)-2-(5-(2-(2-((1R,3S,4S)-2-((S)-2-(methoxycarbonyl)amino-3-methylbutanoyl)-2-azabicyclo[2.2.1]heptan-3-yl)-1H-imidazol-5-yl)naphtho[1,2-b]thiophen-7-yl)-1H-imidazol-2-yl)pyrrolidin-1-yl)-3-methyl-1-oxobutan-2-yl)carbamate]",0.001 to 0.999 nM,0.001 to 0.999 nM
